Measurements: ChEMBL document CHEMBL1909046, “DrugMatrix in vitro pharmacology data”

Key:
[1] = biological target: T1, Cathepsin G (Homo sapiens, UniProt P08311); assay type: tissue-based; settings: neutrophil;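 note: inhibition of Cathepsin G enzyme activity, tested on an AMC-conjugated peptide substrate; in other assays of this panel Not Active means under 50% inhibition at 10 µM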
T1 sequence (P08311 whole entry): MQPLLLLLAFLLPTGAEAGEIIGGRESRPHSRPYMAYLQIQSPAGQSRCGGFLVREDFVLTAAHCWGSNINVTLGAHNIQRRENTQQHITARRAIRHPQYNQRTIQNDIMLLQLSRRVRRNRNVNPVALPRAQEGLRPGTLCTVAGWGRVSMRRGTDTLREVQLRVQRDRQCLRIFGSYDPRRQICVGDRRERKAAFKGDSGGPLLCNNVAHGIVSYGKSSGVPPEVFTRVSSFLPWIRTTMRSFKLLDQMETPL

[2] = DRUGMATRIX: Phosphodiesterase PDE4 enzyme inhibition (substrate: [3H]cAMP + cAMP); settings: u-937, Not Active = under 50% inhibition at 10 µM
[3] = biological target: T2, Neutrophil elastase (Homo sapiens, UniProt P08246); assay type: tissue-based;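 note: inhibition of neutrophil elastase enzyme activity, measured with a p-nitroanilide-linked peptide substrate; in other assays of this panel Not Active means under 50% inhibition at 10 µM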
T2 sequence (P08246 whole entry): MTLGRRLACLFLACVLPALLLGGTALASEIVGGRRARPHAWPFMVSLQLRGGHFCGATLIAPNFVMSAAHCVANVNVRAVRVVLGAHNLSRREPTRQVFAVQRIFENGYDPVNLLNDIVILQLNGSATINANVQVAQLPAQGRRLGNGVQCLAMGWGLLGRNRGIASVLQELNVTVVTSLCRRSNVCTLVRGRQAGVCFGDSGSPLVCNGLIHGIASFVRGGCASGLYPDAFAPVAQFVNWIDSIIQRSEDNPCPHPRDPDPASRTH

[4] = biological target: T3, Thromboxane-A synthase (Homo sapiens, UniProt P24557); assay: biochemical; assay type: tissue-based, Platelet; settings: platelet;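 note: enzyme inhibition assay with PGH2 supplied as substrate; in other assays of this panel Not Active means under 50% inhibition at 10 µM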
T3 sequence (P24557 whole entry): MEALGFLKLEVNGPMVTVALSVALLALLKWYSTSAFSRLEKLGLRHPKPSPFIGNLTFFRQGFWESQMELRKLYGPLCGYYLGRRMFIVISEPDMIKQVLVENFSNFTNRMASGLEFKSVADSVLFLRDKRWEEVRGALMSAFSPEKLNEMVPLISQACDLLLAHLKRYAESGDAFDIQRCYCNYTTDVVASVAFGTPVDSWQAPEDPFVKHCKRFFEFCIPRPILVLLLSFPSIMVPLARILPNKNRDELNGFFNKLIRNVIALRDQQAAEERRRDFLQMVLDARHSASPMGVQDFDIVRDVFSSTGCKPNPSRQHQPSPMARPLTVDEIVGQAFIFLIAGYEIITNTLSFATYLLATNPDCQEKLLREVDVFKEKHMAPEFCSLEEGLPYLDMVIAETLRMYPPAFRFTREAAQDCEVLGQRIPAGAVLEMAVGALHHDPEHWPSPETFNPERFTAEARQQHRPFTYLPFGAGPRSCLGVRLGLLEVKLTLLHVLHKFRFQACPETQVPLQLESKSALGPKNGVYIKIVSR

[5] = biological target: T4, Alpha-2C adrenergic receptor (Homo sapiens, UniProt P18825); assay: DRUGMATRIX: Adrenergic Alpha-2C radioligand binding (ligand: [3H] MK-912); assay type: cell membranes, Sf9, Membrane; settings: sf9
T4 sequence (P18825 whole entry): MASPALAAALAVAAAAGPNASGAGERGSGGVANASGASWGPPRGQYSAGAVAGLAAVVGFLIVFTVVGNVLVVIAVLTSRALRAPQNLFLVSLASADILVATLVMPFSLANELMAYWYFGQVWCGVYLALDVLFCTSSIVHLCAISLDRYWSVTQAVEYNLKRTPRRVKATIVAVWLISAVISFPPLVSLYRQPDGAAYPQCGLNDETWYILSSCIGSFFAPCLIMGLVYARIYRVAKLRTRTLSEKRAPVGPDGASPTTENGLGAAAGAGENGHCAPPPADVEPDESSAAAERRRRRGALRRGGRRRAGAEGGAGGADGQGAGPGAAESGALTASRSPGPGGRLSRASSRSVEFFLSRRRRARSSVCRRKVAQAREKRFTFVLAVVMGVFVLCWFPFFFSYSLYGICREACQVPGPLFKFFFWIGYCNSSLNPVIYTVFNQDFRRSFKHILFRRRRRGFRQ

[6] = biological target: Substance-P receptor (Homo sapiens, UniProt P25103); assay type: cell membranes, Membrane; settings: cho; note: in other assays of this panel Not Active means under 50% inhibition at 10 µM
Substance-P receptor, sequence (P25103 whole entry): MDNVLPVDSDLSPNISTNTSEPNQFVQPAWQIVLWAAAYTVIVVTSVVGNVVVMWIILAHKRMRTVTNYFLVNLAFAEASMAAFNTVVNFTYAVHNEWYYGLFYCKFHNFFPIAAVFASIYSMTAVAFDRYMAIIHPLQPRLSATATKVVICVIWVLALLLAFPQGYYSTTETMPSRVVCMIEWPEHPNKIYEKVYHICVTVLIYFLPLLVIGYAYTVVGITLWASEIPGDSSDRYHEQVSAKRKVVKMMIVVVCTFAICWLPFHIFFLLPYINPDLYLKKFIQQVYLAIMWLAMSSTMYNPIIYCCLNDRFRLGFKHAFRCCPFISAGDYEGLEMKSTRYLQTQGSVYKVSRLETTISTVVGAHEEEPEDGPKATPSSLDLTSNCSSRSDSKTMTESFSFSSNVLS

[7] = biological target: Cytochrome P450 2E1 (Homo sapiens, UniProt P05181); settings: bti-tn-5b1-4; note: in other assays of this panel Not Active means under 50% inhibition at 10 µM
Cytochrome P450 2E1, sequence (P05181 whole entry): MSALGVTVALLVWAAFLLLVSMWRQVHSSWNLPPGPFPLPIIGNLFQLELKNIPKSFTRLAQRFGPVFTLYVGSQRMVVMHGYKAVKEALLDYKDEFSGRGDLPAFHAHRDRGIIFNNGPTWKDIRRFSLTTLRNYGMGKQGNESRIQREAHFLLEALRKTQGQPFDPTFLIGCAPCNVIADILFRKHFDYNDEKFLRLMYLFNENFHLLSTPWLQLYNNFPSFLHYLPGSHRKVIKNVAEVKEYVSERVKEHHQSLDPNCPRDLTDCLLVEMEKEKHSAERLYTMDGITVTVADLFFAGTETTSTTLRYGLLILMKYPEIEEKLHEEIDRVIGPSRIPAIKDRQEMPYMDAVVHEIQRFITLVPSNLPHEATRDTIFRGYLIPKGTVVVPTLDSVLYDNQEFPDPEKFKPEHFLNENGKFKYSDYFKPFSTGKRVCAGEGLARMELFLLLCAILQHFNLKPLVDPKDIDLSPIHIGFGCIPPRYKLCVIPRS

CCCCC1C(=O)N(c2ccccc2)N(c2ccccc2)C1=O [PHENYLBUTAZONE]
IC50 [1]: Not Active
IC50 [2]: Not Active
Ki [2]: Not Active
IC50 [3]: Not Active
IC50 [4]: Not Active
IC50 [5]: Not Active
IC50 [6]: Not Active
IC50 [7]: Not Active
Ki [7]: Not Active

CCN[C@@H](C)Cc1cccc(C(F)(F)F)c1 [DEXFENFLURAMINE]
IC50 [1]: Not Active
IC50 [2]: Not Active
Ki [2]: Not Active
IC50 [3]: Not Active
IC50 [4]: Not Active
IC50 [5]: Not Active
IC50 [6]: Not Active
IC50 [7]: Not Active
Ki [7]: Not Active

CCC(=O)O[C@H]1[C@H](O[C@@H]2[C@@H](C)[C@H](O[C@H]3C[C@@](C)(OC)[C@@H](O)[C@H](C)O3)[C@@H](C)C(=O)O[C@H](CC)[C@@](C)(O)[C@H](O)[C@@H](C)C(=O)[C@H](C)C[C@@]2(C)O)O[C@H](C)C[C@@H]1N(C)C [ERYTHROMYCIN PROPIONATE]
IC50 [1]: Not Active
IC50 [2]: Not Active
Ki [2]: Not Active
IC50 [3]: Not Active
IC50 [4]: Not Active
IC50 [5]: Not Active
IC50 [6]: Not Active
IC50 [7]: Not Active
Ki [7]: Not Active

C=C1/C(=C\C=C2/CCC[C@]3(C)[C@@H]([C@H](C)CCCC(C)C)CC[C@@H]23)C[C@@H](O)C[C@@H]1O [ALFACALCIDOL]
IC50 [1]: Not Active
IC50 [2]: Not Active
Ki [2]: Not Active
IC50 [3]: Not Active
IC50 [4]: Not Active
IC50 [5]: Not Active
IC50 [6]: Not Active
IC50 [7]: Not Active
Ki [7]: Not Active

CS(=O)(=O)OCCCCOS(C)(=O)=O [BUSULFAN]
IC50 [1]: Not Active
IC50 [2]: Not Active
Ki [2]: Not Active
IC50 [3]: Not Active
IC50 [4]: Not Active
IC50 [5]: Not Active
IC50 [6]: Not Active
IC50 [7]: Not Active
Ki [7]: Not Active

C[C@]12CCC(=O)C=C1CC[C@@H]1[C@@H]2[C@@H](O)C[C@@]2(C)[C@H]1CC[C@]2(O)C(=O)CO [HYDROCORTISONE]
IC50 [1]: Not Active
IC50 [2]: Not Active
Ki [2]: Not Active
IC50 [3]: Not Active
IC50 [4]: Not Active
IC50 [5]: Not Active
IC50 [6]: Not Active
IC50 [7]: Not Active
Ki [7]: Not Active

POLYVINYL ALCOHOL
IC50 [1]: Not Active
Ki [1]: Not Active
IC50 [2]: Not Active
Ki [2]: Not Active
IC50 [3]: Not Active
Ki [3]: Not Active
IC50 [4]: Not Active
Ki [4]: Not Active
IC50 [5]: Not Active
Ki [5]: Not Active
IC50 [6]: Not Active
Ki [6]: Not Active
IC50 [7]: Not Active
Ki [7]: Not Active

COBALT(II) ACETYLACETONATE
IC50 [1]: Not Active
Ki [1]: Not Active
IC50 [2]: Not Active
Ki [2]: Not Active
IC50 [3]: Not Active
Ki [3]: Not Active
IC50 [4]: Not Active
Ki [4]: Not Active
IC50 [5]: Not Active
Ki [5]: Not Active
IC50 [6]: Not Active
Ki [6]: Not Active
IC50 [7]: Not Active
Ki [7]: Not Active

Nc1nc(N)nc(NC2CC2)n1 [CYROMAZINE]
IC50 [1]: Not Active
IC50 [2]: Not Active
Ki [2]: Not Active
IC50 [3]: Not Active
IC50 [4]: Not Active
IC50 [5]: Not Active
IC50 [6]: Not Active
IC50 [7]: Not Active
Ki [7]: Not Active

CN(C(=O)CCCOc1ccc2[nH]c(=O)ccc2c1)C1CCCCC1 [CILOSTAMIDE]
IC50 [1]: Not Active
IC50 [2]: Not Active
Ki [2]: Not Active
IC50 [3]: Not Active
IC50 [4]: Not Active
IC50 [5]: Not Active
IC50 [6]: Not Active
IC50 [7]: Not Active
Ki [7]: Not Active

CC(C)(Oc1ccc(C2CC2(Cl)Cl)cc1)C(=O)O (stereo unspecified) [CIPROFIBRATE]
IC50 [1]: Not Active
IC50 [2]: Not Active
Ki [2]: Not Active
IC50 [3]: Not Active
IC50 [4]: Not Active
IC50 [5]: Not Active
IC50 [6]: Not Active
IC50 [7]: Not Active
Ki [7]: Not Active

CCc1oc2ccccc2c1C(=O)c1cc(Br)c(O)c(Br)c1 [BENZBROMARONE]
IC50 [1]: Not Active
IC50 ([2]; read-out: IC50): 1060 nM
IC50 [3]: Not Active
IC50 [4]: Not Active
IC50 [5]: Not Active
IC50 [6]: Not Active
IC50 [7]: Not Active
Ki [7]: Not Active

CNC(=C[N+](=O)[O-])NCCSCc1csc(CN(C)C)n1 [NIZATIDINE]
IC50 [1]: Not Active
IC50 [2]: Not Active
Ki [2]: Not Active
IC50 [3]: Not Active
IC50 [4]: Not Active
IC50 [5]: Not Active
IC50 [6]: Not Active
IC50 [7]: Not Active
Ki [7]: Not Active

CC(=O)O[C@]1(C(C)=O)CC[C@H]2[C@@H]3C=C(Cl)C4=CC(=O)[C@@H]5C[C@@H]5[C@]4(C)[C@H]3CC[C@@]21C [CYPROTERONE ACETATE]
IC50 [1]: Not Active
IC50 [2]: Not Active
Ki [2]: Not Active
IC50 [3]: Not Active
IC50 [4]: Not Active
IC50 [5]: Not Active
IC50 [6]: Not Active
IC50 [7]: Not Active
Ki [7]: Not Active

CN(Cc1cnc2nc(N)nc(N)c2n1)c1ccc(C(=O)N[C@@H](CCC(=O)O)C(=O)O)cc1 [METHOTREXATE]
IC50 [1]: Not Active
IC50 [2]: Not Active
Ki [2]: Not Active
IC50 [3]: Not Active
IC50 [4]: Not Active
IC50 [5]: Not Active
IC50 [6]: Not Active
IC50 [7]: Not Active
Ki [7]: Not Active

CC(CCc1ccc(O)cc1)NCCc1ccc(O)c(O)c1 (stereo unspecified) [DOBUTAMINE]
IC50 [1]: Not Active
IC50 [2]: Not Active
Ki [2]: Not Active
IC50 [3]: Not Active
IC50 [4]: Not Active
IC50 [5]: Not Active
IC50 [6]: Not Active
IC50 [7]: Not Active
Ki [7]: Not Active

Nc1nc(Cl)nc2c1ncn2[C@H]1C[C@H](O)[C@@H](CO)O1 [CLADRIBINE]
IC50 [1]: Not Active
IC50 ([2]; read-out: IC50): 3620 nM
IC50 [3]: Not Active
IC50 [4]: Not Active
IC50 [5]: Not Active
IC50 [6]: Not Active
IC50 [7]: Not Active
Ki [7]: Not Active

Cc1cccc(Nc2cc(Cl)nc(SCC(=O)O)n2)c1C [PIRINIXIC ACID]
IC50 [1]: Not Active
IC50 [2]: Not Active
Ki [2]: Not Active
IC50 [3]: Not Active
IC50 [4]: Not Active
IC50 [5]: Not Active
IC50 [6]: Not Active
IC50 [7]: Not Active
Ki [7]: Not Active

INSULIN HUMAN
IC50 [1]: Not Active
Ki [1]: Not Active
IC50 [2]: Not Active
Ki [2]: Not Active
IC50 [3]: Not Active
Ki [3]: Not Active
IC50 [4]: Not Active
Ki [4]: Not Active
IC50 [5]: Not Active
Ki [5]: Not Active
IC50 [6]: Not Active
Ki [6]: Not Active
IC50 [7]: Not Active
Ki [7]: Not Active

CCn1cc(C(=O)O)c(=O)c2cc(F)c(N3CCNCC3)nc21 [ENOXACIN]
IC50 [1]: Not Active
IC50 [2]: Not Active
Ki [2]: Not Active
IC50 [3]: Not Active
IC50 [4]: Not Active
IC50 [5]: Not Active
IC50 [6]: Not Active
IC50 [7]: Not Active
Ki [7]: Not Active

O=C(O)c1cc(=O)c2c(OCC(O)COc3cccc4oc(C(=O)O)cc(=O)c34)cccc2o1 [CROMOLYN]
IC50 [1]: Not Active
IC50 [2]: Not Active
Ki [2]: Not Active
IC50 [3]: Not Active
IC50 [4]: Not Active
IC50 [5]: Not Active
IC50 [6]: Not Active
IC50 [7]: Not Active
Ki [7]: Not Active

CC(=O)OCC(CCn1cnc2cnc(N)nc21)COC(C)=O [FAMCICLOVIR]
IC50 [1]: Not Active
IC50 [2]: Not Active
Ki [2]: Not Active
IC50 [3]: Not Active
IC50 [4]: Not Active
IC50 [5]: Not Active
IC50 [6]: Not Active
IC50 [7]: Not Active
Ki [7]: Not Active
